Where a SMILES comes first, the peptide text is derived from it. [ ]: non-standard residue; d: D form.
Each compound was assayed against Endothelin-1 receptor (Oryctolagus cuniculus) (assay: Effective concentration against ET A receptor from rabbit renal artery vascular smooth muscle cells).

SMILES | IC50 [µM]
CC[C@H](C)[C@H](NC(=O)[C@H](CC(=O)O)NC(=O)[C@H](CC(C)C)NC(=O)[C@@H](Cc1ccc(O)cc1)NC(C)=O)C(=O)N[C@H](C(=O)N[C@@H](Cc1c[nH]c2ccccc12)C(=O)O)[C@@H](C)CC (Ac-[dY]LDIIW-OH) | 0.4
CC[C@H](C)[C@H](NC(=O)[C@H](CC(=O)O)NC(=O)[C@H](CC(C)C)NC(=O)[C@@H](Cc1ccccc1)NC(C)=O)C(=O)N[C@H](C(=O)NC(Cc1cnc[nH]1)C(=O)O)[C@@H](C)CC (mixture of isomers) [Ac-D-Phe-Leu-Asp-Ile-Ile-DL-His] | > 10
CC[C@H](C)[C@H](NC(=O)[C@H](CC(=O)O)NC(=O)[C@H](CC(C)C)NC(=O)[C@@H](Cc1ccccc1)NC(C)=O)C(=O)N[C@@H](Cc1c[nH]c2ccccc12)C(=O)O [(S)-3-[(R)-2-((1S,5S)-2-Acetylamino-3-phenyl-propionylamino)-4-methyl-pentanoylamino]-N-{(S)-1-[(S)-1-carboxy-2-(1H-indol-3-yl)-ethylcarbamoyl]-2-methyl-butyl}-succinamic acid] (Ac-[dF]LDIW-OH) | > 10
CC[C@H](C)[C@H](NC(=O)[C@@H](NC(=O)[C@@H](Cc1ccccc1)NC(C)=O)[C@@H](C)CC)C(=O)N[C@@H](Cc1c[nH]c2ccccc12)C(=O)O [Ac-D-Phe-Ile-Ile-Trp] (Ac-[dF]IIW-OH) | > 10
CC[C@H](C)[C@H](NC(=O)[C@H](C)NC(=O)[C@H](CC(=O)O)NC(=O)[C@H](CC(C)C)NC(=O)[C@@H](Cc1ccccc1)NC(C)=O)C(=O)N[C@@H](Cc1c[nH]c2ccccc12)C(=O)O [Ac-D-Phe-Leu-Asp-Ala-Ile-Trp] (Ac-[dF]LDAIW-OH) | 3.6
CC[C@H](C)[C@H](NC(=O)[C@H](CC(=O)O)NC(=O)[C@H](CC(C)C)NC(=O)[C@@H](Cc1ccccc1)NC(C)=O)C(=O)N[C@@H](C)C(=O)N[C@@H](Cc1c[nH]c2ccccc12)C(=O)O [Ac-D-Phe-Leu-Asp-Ile-Ala-Trp] (Ac-[dF]LDIAW-OH) | 8
CC[C@H](C)[C@H](NC(=O)[C@H](CC(=O)O)NC(=O)[C@H](CC(C)C)NC(=O)[C@@H](Cc1ccccc1)NC(C)=O)C(=O)N[C@H](C(=O)N[C@@H](Cc1csc2ccccc12)C(=O)O)[C@@H](C)CC [Ac-D-Phe-Leu-Asp-Ile-Ile-Bta] | 14
CC[C@H](C)[C@H](NC(=O)[C@H](CC(=O)O)NC(=O)[C@H](CC(C)C)NC(=O)[C@@H](Cc1ccccc1)NC(C)=O)C(=O)N[C@H](C(=O)N[C@@H](Cc1ccc(O)cc1)C(=O)O)[C@@H](C)CC [Ac-D-Phe-Leu-Asp-Ile-Ile-Tyr] (Ac-[dF]LDIIY-OH) | > 10
CC[C@H](C)[C@H](NC(=O)[C@H](CC(=O)O)NC(=O)[C@H](CC(C)C)NC(=O)[C@H](N)Cc1ccccc1)C(=O)N[C@H](C(=O)N[C@@H](Cc1c[nH]c2ccccc12)C(=O)O)[C@@H](C)CC [D-Phe-Leu-Asp-Ile-Ile-Trp] | > 10
